The text below walks through data of BindingDB's records for doi:10.1016/0960-894X(95)00473-7 (1995).

Broadly, the IC50 is the concentration that inhibits the measured activity by half. Low readings indicate greater potency, high ones weaker potency.

For the test, the target named is 5-hydroxytryptamine receptor 1D (Bos taurus). The test can be described thus: Ability to bind to 5-hydroxytryptamine 1D receptor of calf substantia nigra.
In turn, `c1ccc2c(c1)CCC(CNCCCNC1=NCCCC1)O2` (stereo not given) showed a 50% inhibitory concentration (IC50) of 4 nM.
For `c1ccc2c(c1)CC(CNCCCNC1=NCCCN1)O2` (stereo not given) the value was 126 nM; for `c1cnc(NCCCNCC2CCc3ccccc3O2)nc1` (stereo not given), 1.6 nM; for `c1ccc2c(c1)CCC(CNCCCNc1cnccn1)O2` (stereo not given), 10 nM.
Next, `O=C1CCCN=C(NCCCNCC2CCc3ccccc3O2)N1` (stereo not given): 158 nM; `COc1ccc2c(c1)OC(CNCCCNC1=NCCCN1)CC2` (stereo not given): 3.2 nM; `Clc1ccc(NCCCNCC2CCc3ccccc3O2)nn1` (stereo not given): 2 nM.
Turning to `c1ccc2c(c1)CCC(CNCCCNc1ccncn1)O2` (stereo not given), the IC50 was found to be 10 nM.
Next, `c1ccc2c(c1)CCC(CNCCCNC1=NCCCN1)C2` (stereo not given): 40 nM; `c1ccc2c(c1)CCC(CNCCCNc1nccs1)O2` (stereo not given): 7.9 nM; `c1ccc2c(c1)CCC(CNCCCNC1=NCCN1)O2` (stereo not given): 6.3 nM.
For `Fc1ccc2c(c1)CCC(CNCCCNC1=NCCCN1)O2` (stereo not given) the value was 7.9 nM.
Next, `c1ccc2c(c1)CCC(CNCCCCCNC1=NCCCN1)O2` (stereo not given): 10 nM; `CC(C)NC(=N)NNCCCNCC1CCc2ccccc2O1` (stereo not given): 3.2 nM.
For the compound `COc1cccc2c1OC(CNCCCNC1=NCCCN1)CC2` (stereo not given), the IC50 is 0.794 nM.
